Some test systems named below: MDA-N; T-47D breast; NCI-H460 lung; OVCAR-3 ovarian; TK-10 renal; RPMI-8226 leukemia; OVCAR-8 ovarian; KM12 colon; NCI-H226 lung; PC-3 prostate; HCT-116 colon; A498 renal; SK-MEL-2 melanoma; MDA-MB-231 breast; HOP-62 NSCLC.
Holding throughout (assay): inhibition of tumour cell growth, NCI panel, 48 h

Experimental findings from PubChem BioAssay (NCI) are described below.

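Tested at 5 concentrations; 48 h exposure; 96-well plates; endpoints linearly interpolated, else capped at highest concentration. TGI is the concentration that stops growth completely.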

With `CC(C)C1CC(CO)(CNc2nc(N)nc(Cl)c2/C=N\O)C1` (stereo not drawn), the TGI stood at 23.9 µM with MDA-N; 4.91 µM in the test with T-47D breast; 3.14 µM in the test on NCI-H460 lung; 36.9 µM in the test with OVCAR-3 ovarian; 61.1 µM in the test with TK-10 renal; 31.9 µM in the test on RPMI-8226 leukemia. The TGI in the test on OVCAR-8 ovarian came to 50.3 µM; in the test with KM12 colon, 18.3 µM; in the test on NCI-H226 lung, 51.2 µM; with PC-3 prostate, 26.5 µM; in the test on HCT-116 colon, 34 µM; in the test on A498 renal, 34.6 µM. Moreover, the values for the TGI with SK-MEL-2 melanoma, in the test with MDA-MB-231 breast and in the test with HOP-62 NSCLC were 26.5 µM, 31.6 µM and more than 100 µM, respectively.
`COC(=O)CN=C1NC(=S)N(Cc2ccc(OC)cc2)C12CCCC2`: the TGI in the test with MDA-N, with T-47D breast, in the test with NCI-H460 lung, in the test on OVCAR-3 ovarian, in the test on RPMI-8226 leukemia and in the test on OVCAR-8 ovarian was more than 100 µM each time. Also, the TGI in the test on KM12 colon, with NCI-H226 lung, in the test with PC-3 prostate, with HCT-116 colon, in the test with A498 renal and with SK-MEL-2 melanoma was more than 100 µM throughout. In addition, the TGI with MDA-MB-231 breast and with HOP-62 NSCLC was more than 100 µM in each case.
`N#Cc1sc2c(c1OC(=O)c1ccc(Cl)cc1)c(=O)n(-c1ccccc1)c(=S)n2-c1ccccc1`: the TGI with MDA-N was 55.1 µM; with T-47D breast, more than 100 µM; in the test with NCI-H460 lung it was 33.3 µM; with OVCAR-3 ovarian, 64.2 µM; with TK-10 renal, 88.7 µM; in the test with RPMI-8226 leukemia, 45.3 µM. The TGI with OVCAR-8 ovarian worked out at 67.1 µM; in the test on KM12 colon it was 32.5 µM; with NCI-H226 lung, 86.7 µM; in the test on PC-3 prostate it was 80.2 µM; in the test on HCT-116 colon, 44.3 µM; with A498 renal it was 57.2 µM. Besides, the TGI with MDA-MB-231 breast was 97 µM; in the test with HOP-62 NSCLC, 82.7 µM.
In the case of `COc1ccc(-c2[nH]c(-c3ccc(OC)cc3)c(-c3ccccn3)c2-c2ccccn2)cc1`, the TGI was more than 100 µM in the test with MDA-N; more than 100 µM in the test on T-47D breast; more than 100 µM with NCI-H460 lung; more than 100 µM with OVCAR-3 ovarian; more than 100 µM in the test on TK-10 renal; 69.5 µM with RPMI-8226 leukemia. Also, the TGI with OVCAR-8 ovarian, with KM12 colon, with NCI-H226 lung, with PC-3 prostate, in the test with HCT-116 colon and with A498 renal was more than 100 µM in each case. For the same compound, the TGI in the test with MDA-MB-231 breast was more than 100 µM.
Consider `CC(=O)Nc1ncc2c(n1)-c1ccccc1OC2c1ccccc1` (stereo not drawn), for which the TGI in the test with MDA-N is more than 100 µM; with T-47D breast it was 68.4 µM; with NCI-H460 lung, more than 100 µM; in the test on OVCAR-3 ovarian, more than 100 µM; in the test on TK-10 renal, 63.2 µM; in the test with RPMI-8226 leukemia, more than 100 µM. Besides, the TGI in the test with OVCAR-8 ovarian is 66.2 µM; in the test on KM12 colon, more than 100 µM; in the test on NCI-H226 lung, 52.1 µM; with PC-3 prostate, more than 100 µM; in the test on HCT-116 colon, more than 100 µM; in the test on A498 renal it was 51.6 µM. Also, the TGI in the test on SK-MEL-2 melanoma is more than 100 µM; in the test on MDA-MB-231 breast it was 75.3 µM.
`Cc1ccc(S(=O)(=O)NN=C2C(C)(C)CC2(C)C)cc1`: the TGI with MDA-N, in the test with T-47D breast, in the test on NCI-H460 lung, in the test on OVCAR-3 ovarian, in the test with TK-10 renal and in the test on OVCAR-8 ovarian was more than 100 µM in each case. The TGI with KM12 colon, in the test on NCI-H226 lung, with PC-3 prostate, with HCT-116 colon, in the test on A498 renal and with SK-MEL-2 melanoma was more than 100 µM each time. Moreover, the TGI in the test on MDA-MB-231 breast and in the test on HOP-62 NSCLC was more than 100 µM in each case.
On to `CCC(=O)N(c1ccccc1)C(C)CN1CCC(O)(c2cccc(C(F)(F)F)c2)CC1` (stereo not drawn), for which the TGI is 39.2 µM with MDA-N; 98.4 µM in the test on T-47D breast; more than 100 µM with OVCAR-3 ovarian; 73.3 µM with TK-10 renal; 45.3 µM in the test with RPMI-8226 leukemia; more than 100 µM with OVCAR-8 ovarian. In addition, the TGI in the test on KM12 colon was more than 100 µM; with NCI-H226 lung, 76.5 µM; in the test with PC-3 prostate, 46 µM; in the test with HCT-116 colon, 31.1 µM; in the test with A498 renal, 66.3 µM; in the test on SK-MEL-2 melanoma it was 43 µM. The TGI worked out at 44.7 µM with MDA-MB-231 breast and 42.3 µM with HOP-62 NSCLC.
Regarding `Cc1cc(O)c2c(c1)C(C1OC(CO)C(O)C(O)C1O)c1cc(O)cc(O)c1C2=O` (stereo not drawn), the TGI in the test with MDA-N, with T-47D breast, in the test on NCI-H460 lung, with OVCAR-3 ovarian, with TK-10 renal and in the test with RPMI-8226 leukemia was more than 100 µM in each case. Also, the TGI in the test on OVCAR-8 ovarian, with NCI-H226 lung, in the test on PC-3 prostate, in the test on HCT-116 colon, with A498 renal and in the test with MDA-MB-231 breast was more than 100 µM each time. Besides, in the test on HOP-62 NSCLC, the TGI was more than 100 µM.
On to `CCCCC(O)(c1ccccc1)C(O)(c1ccccc1)c1c(F)c(F)c(F)c(F)c1F` (stereo not drawn), for which the TGI with MDA-N was 39.3 µM; in the test on T-47D breast, more than 100 µM; in the test with NCI-H460 lung, 54.4 µM; in the test on OVCAR-3 ovarian, 32.6 µM; in the test on TK-10 renal, 84.8 µM; in the test with RPMI-8226 leukemia, 45.6 µM. Further, the TGI in the test on OVCAR-8 ovarian was determined as 55.5 µM; in the test on NCI-H226 lung, 86 µM; in the test with PC-3 prostate, 46.8 µM; with HCT-116 colon it was 65 µM; in the test on A498 renal, 49.4 µM; in the test with MDA-MB-231 breast, 34.9 µM. In the test on HOP-62 NSCLC, this compound returned a TGI of 49.5 µM.
As for `CCCCCCc1cc2cc(C(=O)NCc3ccccc3)c(=N)oc2cc1O`, the TGI in the test on MDA-N, with T-47D breast, in the test with NCI-H460 lung, with OVCAR-3 ovarian, in the test on RPMI-8226 leukemia and in the test with OVCAR-8 ovarian was more than 100 µM in each case. Further, the TGI in the test with KM12 colon, with NCI-H226 lung, with PC-3 prostate, in the test with HCT-116 colon, with A498 renal and in the test on SK-MEL-2 melanoma was more than 100 µM each time. Besides, the TGI in the test on MDA-MB-231 breast and in the test on HOP-62 NSCLC was more than 100 µM throughout.
